Consider 1 substance from patent US20150309031A2, “COMPOSITIONS AND METHODS FOR PROGNOSIS AND TREATMENT OF CANCER” (NOVAZOI THERANOSTICS, priority 2013, published 2015).

One data set concerns 231 cells. Description: Centrosome amplification (CA) by microscopy, 231 cells. The data set is classed as cell-based. Conditions: for maximum extent of CA in mitotic cells: over 24 h. On the procedure: Consequently, CA was assessed in cultures treated with different concentrations of declustering drugs for 6, 12, 18, or 24 h and untreated controls via microscopy. […] The peak percent CA detected over 24 h is shown in FIG. 6 (only statistically significant (P<0.05) increases over control values are represented in the Figures). Representative confocal micrographs of CA in interphase and mitotic cells, both control and drug treated, are depicted in FIG. 7. […] To better understand the “potency” of drug-induced CA with time, the average fold change in CA over controls over 24 h was assessed (FIG. 5A), whereby the extent of CA across time points (i.e., 6, 12, 18, and 24 h) was averaged and then divided by the extent of CA in control (i.e., 0 h). […] For Nos and BN, there was no major difference in CA levels in interphase versus mitotic cells.

For the next data set, the system named is MCF10A cells. Description: Centrosome amplification (CA) by microscopy, MCF10A cells. The data set is classed as cell-based. The following applies: interphase and mitotic cells, over 24 h. On the procedure: Consequently, CA was assessed in cultures treated with different concentrations of declustering drugs for 6, 12, 18, or 24 h and untreated controls via microscopy. Centrosomes were identified by γ-tubulin and centrin-2 colocalization at discrete foci. […] The peak percent CA detected over 24 h is shown in FIG. 6 (only statistically significant (P<0.05) increases over control values are represented in the Figures). Representative confocal micrographs of CA in interphase and mitotic cells, both control and drug treated, are depicted in FIG. 7. No significant correlations between the degree of CA (FIG. 5A) and the expression levels of PLK4, Cyclin E, and Aurora A were found (FIG. 4).
To determine whether the CA-inducing activity of declustering drugs is restricted to cancer cells, two non-malignant cell lines, mammary fibrocystic (MCF10A) cells and adult human dermal fibroblasts were treated with these drugs. Neither one of RBN, GF or PJ induced CA or cell death (Table 8) in these cell lines. […] In comparison, 10 and 25 μM RBN increased peak CA over controls in interphase cells (p<0.001 and p=0.001, respectively), with the lower concentration dramatically augmenting peak CA to 56% of cells versus 15% for the higher dose (FIG. 9B). Only 10 but not 25 μM RBN increased the extent of CA in mitotic cells, and this upregulation was only slight (10%, p=0.041).

For a further data set, the system named is HDFs and MCF10A cells. Description: Spindle multipolarity (MP) in non-malignant cell lines. Type of data set: cell-based.
Data set [1] has as its system human ovarian cancer xenografts. Conditions: nude mice carrying human ovarian cancer xenografts; cited from earlier work. (In general: In xenograft studies the graft and the host belong to different species.)
For data set [2], the system named is MDA-MB-231 (231), PC3, and HeLa cells. Description: Mitotic arrest (MA) by flow cytometry (MPM2/PI), across cell lines. Conditions: coarse-grained categories. Type of data set: cell-based. On the procedure: (§1) Trypsinized cells were resuspended in PBS at 10^6 cells/ml. Cells were then fixed by addition of ice-cold 70% ethanol. Ethanol-fixed cells were kept overnight at 4° C. before staining. Cells were pelleted and washed twice with PBS. Cell pellets were incubated for an hour at room temperature with mouse anti-MPM-2 antibody (Millipore, Mass., USA), followed by 1 h incubation with Alexa-488 anti-mouse secondary antibody (Life Technologies, NY, USA). Finally cells were washed, pelleted and resuspended in propidium iodide-containing isotonic buffer (0.1 mg/mL) and 0.5% Triton X-100. Cell cycle distribution was determined by flow cytometry using an LSR Fortessa Flow cytometer (BD Biosciences, CA, USA) and analyzed using Flowjo software (Tree Star, OR, USA).
To evaluate the impact of putative declustering drugs on cell cycle progression and hypodiploidy (<2N DNA content, which may indicate apoptotic cells), MDA-MB-231 (231), PC3, and HeLa cells were treated with different concentrations of declustering drugs, stained with propidium iodide, labeled with anti-MPM2 antibody, and then assessed by flow cytometry at multiple time points over 48 h. […] The duration, highest degree, and rapidity of onset of MA varied between drugs, drug concentrations, and cell lines (FIGS. 2A, 2B). In general, the maximum MA achieved was less pronounced in Nos- and PJ-treated cells (FIGS. 2A, 2B). […]
A general note: In flow cytometry, cells or beads pass a laser one at a time.

Another data set deals with MDA-MB-231 (231) cells. Description: subG1 (hypodiploid) fraction by flow cytometry, 231 cells. Type of data set: cell-based. On the procedure: as §1, with “OR, USA). […] The duration, highest degree, and rapidity of onset of MA varied between drugs, drug concentrations, and cell lines (FIGS. 2A, 2B). In general, the maximum MA achieved was less pronounced in Nos- and PJ-treated cells (FIGS. 2A, 2B). Drug-induced onset of MA was corroborated by substantial increases in cyclin B1 levels in all cell lines (FIG. 2C). […] Instances where the subG1 fraction was elevated without cleaved caspase-3 may either represent caspase-independent cell death or the presence of hypodiploid cells whose fate is unclear.” for “OR, USA).”

Take reduced bromonoscapine [RBN]: in the data set with 231 cells (25 μM), the “change of peak CA extent over control” value was “only slightly more than doubled the peak CA extent”; the “final extent of CA” value is recorded as “around 90%”; the “maximum extent of CA in interphase cells” value turned out to be 87%; the “fold increase of CA over controls, mitotic cells” value was about 2.0 fold. The “maximum extent of CA in mitotic cells” value in the data set on 231 cells (25 μM) is 96%. In the data set with 231 cells (10 μM), the “maximum extent of CA in interphase cells” value is given as 31%; the “fold increase of CA over controls, mitotic cells” value was about 2.5 fold; the “maximum extent of CA in mitotic cells” value is 56%. Further, in the data set on MCF10A cells, the “change of CA over control levels (in words)” value was “significantly increased the peak extent of CA in interphase and mitotic MCF10A cells”. In addition, the “induction of MP over control levels” value in the data set with HDFs and MCF10A cells is given as “significantly induce MP over control levels”. In data set [1], the “toxicity in normal tissues” value is recorded as “toxicity was not detected in normal tissues” and the tumor progression result is on record as “inhibited tumor progression”. Also, the “peak MA (MA:HR), cells in MA” value in data set [2] is recorded as at least 30%. Further, in the data set with MDA-MB-231 (231) cells (10 μM), the “Peak subG1 percent over 48 h” value was determined as 47.0%. In addition, in the data set on MDA-MB-231 (231) cells (25 μM), the “Peak subG1 percent over 48 h” value is given as 80.8% and the “maximum subG1 fraction relative to control” value was 25 × control.
